From patent US10442788B2, “Hepatitis B antiviral agents” (ENANTA PHARMACEUTICALS, INC., priority 2015, dated 2019)

What was measured:
HBV = experiment: HepAD38 antiviral assay: reduction of viral product accumulation (virion DNA by qPCR, HBsAg or HBeAg by ELISA); type: cell-based; settings: Hepatitis B virus, 120 h; HepAD38 cells, five days after compound addition; 50% reduction of viral product accumulation relative to no drug controls; read-out: HepAD38 EC50
Method in brief: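 Tetracycline-washed HepAD38 cells treated with compound (DMSO diluted 1:200) for 5 days, or 8 days with media and compound refreshed on d2 and d5. Virion DNA from lysates quantified by qPCR; HBsAg or HBeAg by ELISA. EC50 is the concentration giving 50% reduction versus no-drug controls, reported as ranges A<1 μM, B 1-10 μM, C>10 μM.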

[1] = Compound toxicity, ATPLite total ATP levels; type: cell-based; settings: human, HepAD38 cells; 15,000 cells/well, three days after compound addition; 50% reduction of total ATP levels relative to no drug controls
Protocol: Methods: HepAD38 cells are maintained as previously reported (Ladner et al, Antimicrob. Agents Chemother. 1997, […], 1715). Briefly, cells are passaged upon attaining confluency in DMEM/F12 media in the presence of 10% FBS, Penn/Strep, 250 μg/mL G418, and 1 ug/ml tetracycline. Novel compounds are screened by first washing cells three times with PBS to remove tetracycline, and plating in 96 well plates at 35,000 cells/well. Compounds dissolved in DMSO are then diluted 1:200 into wells containing cells. Five days after compound addition, material is harvested for analysis. For an extended 8 day analysis, cells are plated and treated as described above, but media and compound are refreshed on d2 and d5 post initial treatment.
Compound toxicity is evaluated by seeding cells at 15,000 cells/well and treating with compound as described above. Three days after compound addition, cells are treated with ATPLite reagent and compound concentrations that reduce total ATP levels in wells by 50% relative to no drug controls (CC50) are reported; CC50 ranges are as follows: A>30 μM; B 10-30 μM; C<10 μM.

Structure (SMILES) | EC50 (HBV) [µM] | CC50 at 3 days [1] [µM]
O=S(=O)(c1cc(-c2nc(-c3cccc(C4CC4)c3)c[nH]2)ccc1Cl)N1CCC(O)CC1 [Example 136] | 1 to 10 | > 30
O=S(=O)(c1cc(-c2nc(-c3ccc(Br)c(F)c3)c[nH]2)ccc1Cl)N1CCCC(O)CC1 (stereo not drawn) [Example 137] | < 1 | > 30
CC(C)(C)OC(=O)NCCCNS(=O)(=O)c1cc(-c2nc(-c3ccc(Br)c(F)c3)c[nH]2)ccc1Cl [Example 138] | < 1 | > 30
COC(=O)NCCCNS(=O)(=O)c1cc(-c2nc(-c3ccc(Br)c(F)c3)c[nH]2)ccc1Cl [Example 139] | < 1 | > 30
CC(C)OC(=O)NCCCNS(=O)(=O)c1cc(-c2nc(-c3ccc(Br)c(F)c3)c[nH]2)ccc1Cl [Example 140] | < 1 | > 30
CC(C)(C)OC(=O)N1CCN(S(=O)(=O)c2cc(-c3nc(-c4ccc(Br)c(F)c4)c[nH]3)ccc2Cl)CC1 [Example 142] | 1 to 10 | < 10
COC(=O)N1CCN(S(=O)(=O)c2cc(-c3nc(-c4ccc(Br)c(F)c4)c[nH]3)ccc2Cl)CC1 [Example 143] | < 1 | > 30
CN1CCN(S(=O)(=O)c2cc(-c3nc(-c4ccc(Br)c(F)c4)c[nH]3)ccc2Cl)CC1 [Example 144] | < 1 | > 30
O=S(=O)(c1cc(-c2nc(-c3ccc(Br)c(F)c3)c[nH]2)ccc1Cl)N1CCN(CCO)CC1 [Example 145] | < 1 | > 30
CC(C)(C)OC(=O)NCCNS(=O)(=O)c1cc(-c2nc(-c3ccc(Br)c(F)c3)c[nH]2)ccc1Cl [Example 146] | < 1 | > 30
CCOC(=O)NCCCNS(=O)(=O)c1cc(-c2nc(-c3ccc(Br)c(F)c3)c[nH]2)ccc1Cl [Example 147] | < 1 | > 30
N#Cc1cc(-c2c[nH]c(-c3ccc(Cl)c(S(=O)(=O)N4CCC(O)CC4)c3)n2)ccc1Cl [Example 148] | < 1 | > 30
